Entries after “also recorded” stand apart in the source; their conditions may differ. Ends that are not written are not given here.
T1: TLR4/MD-2 complex (Mus musculus, UniProt Q9QUK6)
T1 chain 1: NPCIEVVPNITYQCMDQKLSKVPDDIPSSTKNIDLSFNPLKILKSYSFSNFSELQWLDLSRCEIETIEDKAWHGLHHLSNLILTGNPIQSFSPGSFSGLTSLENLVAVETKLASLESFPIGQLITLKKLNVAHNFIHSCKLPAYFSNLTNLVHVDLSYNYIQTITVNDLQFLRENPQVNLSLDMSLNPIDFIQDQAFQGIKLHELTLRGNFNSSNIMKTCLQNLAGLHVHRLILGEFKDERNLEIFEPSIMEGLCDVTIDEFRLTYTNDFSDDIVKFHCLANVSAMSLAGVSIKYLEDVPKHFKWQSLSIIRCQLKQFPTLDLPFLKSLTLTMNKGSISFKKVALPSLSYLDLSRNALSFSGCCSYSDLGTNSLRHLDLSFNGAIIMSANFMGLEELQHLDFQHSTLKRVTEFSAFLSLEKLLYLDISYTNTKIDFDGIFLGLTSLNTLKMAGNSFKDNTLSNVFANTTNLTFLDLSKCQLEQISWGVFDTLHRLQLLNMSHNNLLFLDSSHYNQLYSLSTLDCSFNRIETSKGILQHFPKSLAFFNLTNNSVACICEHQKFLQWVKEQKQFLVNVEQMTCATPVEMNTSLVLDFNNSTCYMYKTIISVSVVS
T1 chain 2: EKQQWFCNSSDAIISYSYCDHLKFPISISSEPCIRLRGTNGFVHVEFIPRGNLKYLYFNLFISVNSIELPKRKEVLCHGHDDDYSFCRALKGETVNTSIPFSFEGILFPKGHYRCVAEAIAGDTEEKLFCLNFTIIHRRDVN


Assays:
[1] = LPS neutralization, chromogenic end-point Tachypleus Amebocyte Lysate (TAL) assay; format: binding, E. coli
Protocol: The neutralization of LPS by the peptides was assessed through a quantitative Chromogenic End-point Tachypleus Amebocyte Lysate (CE TAL) assay using a QCL-1000 kit (XIAMEN BIOENDO TECHNOLOGY CO., China). LPS (E. coli, O111:B4, Sigma-Aldrich, USA) at a final concentration of 1.0 U/ml was incubated with various concentrations of the peptides (0 to 64 μg/ml final concentration) at 37°C for 15 min. Afterwards, the mixtures were incubated with TAL assay reagent at 37°C; for 6 min, and the absorbance was measured at 540 nm.

[2] = test system: LPS-stimulated RAW264.7 cells; assay: Time of addition experiment (peptide pretreatment, LPS neutralization, post-treatment) in RAW264.7 cells; format: cell-based, mouse; conditions: ELISA
Protocol: To identify the mechanisms underlying the anti-inflammatory effects, three different types of treatments were performed as follow.
Briefly, 10 μg/ml peptide was added to the cell culture medium and incubated with cells for 1 h at 37°C Afterwards, the RAW 264.7 cells were washed with PBS and cultured with fresh medium containing 100 ng/ml LPS for 12 h at 37°C. After treatment, TNF-α, IL-6, and IL-1β secretion in the cell supernatants was assessed.
The peptides (10 μg/ml) were incubated with 100 ng/ml LPS directly for 1 h at 37°C. RAW 264.7 cells were stimulated with these mixtures for 12 h at 37°C. Afterwards, the TNF-α, IL-6 and IL-1β levels in the cell supernatants were assessed.
Briefly, 100 ng/ml LPS was added to the cell culture medium and incubated with cells for 1 h at 37°C. Afterwards, the RAW 264.7 cells were washed with PBS and cultured with fresh medium containing 10 μg/ml peptides for 12 h at 37°C. Afterwards, the TNF-α, IL-6, and IL-1β levels in the cell supernatants were assessed.
(§1) The levels of tumor necrosis factor (TNF)-α, interleukin (IL)-6, and IL-1β in cell culture supernatants and the levels of TNF-α, IL-6, and IL-1β in the serum of mice were detected using commercial ELISA kits (eBioscience, San Diego, USA) according to the manufacturer’s instructions. The levels of serum alanine amino transferase (ALT) and aspartate amino transferase (AST) were detected using commercial reagent kits (Nanjing Jiancheng Bioengineering Institute, Nanjing, China). The activity of myeloperoxidase (MPO) in the liver of mice was detected using an ELISA kit (Boster, Wuhan, China) according to the manufacturer’s instructions.

RAW264.7 cells [3] = assay: CCK-8 cell viability assay; format: cell-based, mouse; conditions: RAW264.7 macrophages, CCK-8, 0 to 80 μg/ml, 24 h or 72 h, 37°C
Protocol: The viability of peptide-treated RAW264.7 cells was determined using a Cell Counting Kit-8 (CCK-8) Assay Kit (Dojindo) ([35]). RAW264.7 cells were plated in 96-well plates at a density of 3×10^4 cells/ml in 100 μl DMEM overnight. The cell culture medium was then supplemented with fresh medium containing candidate peptides in a series of concentrations, and the plates were incubated for another 24 h or 72 h. Each well was incubated with 10 μl CCK-8 solution for 4 h in the dark. Afterwards, the absorbance at 450 nm was measured using a microplate reader. Cell viability was determined by:
Cell viability (%)=(OD450sample/OD450(control))×100%

[4] = test system: LPS-stimulated RAW264.7 cells; assay: Anti-inflammatory assay in LPS-stimulated RAW264.7 cells (ELISA of cytokines); format: cell-based, mouse; conditions: 10 μg/ml peptide 30 min before 100 ng/ml LPS, 12 h, 37°C, ELISA of supernatant
Protocol: RAW264.7 cells were treated with or without 10 μg/ml peptides for 30 min before the addition of 100 ng/ml LPS (E. coli, O55:B5, Sigma-Aldrich, Germany) and further incubation for 12 h at 37°C After treatment, the concentrations of TNF-α, IL-6, and IL-1β in the cell supernatants were assessed.
as §1

[5] = Reverse-phase HPLC retention time as measure of peptide hydrophobicity; format: physicochemical; conditions: HPLC on reverse-phase matrix, aqueous solution; used by the paper as measure of hydrophobicity
Description: The retention time of peptides on a reverse-phase matrix has been reported to be related to peptide hydrophobicity ([34]).

RAW264.7 cells [6] = assay: Cellular uptake and localization of FITC-labeled peptides (confocal microscopy, flow cytometry); format: cell-based, mouse; conditions: N-terminus FITC-labeled peptide, 10 μg/ml, 24 h, 37°C, confocal microscopy and flow cytometry (average FITC intensity)
Protocol: RAW264.7 cells were treated with N-terminus FITC-labeled peptides at 10 μg/ml for 24 h at 37°C; in the dark. Then, the RAW264.7 cells were rinsed with PBS three times, fixed with paraformaldehyde and washed with PBS. The cell nuclei were stained with DAPI (diluted 1:500 in PBS) (Sigma, USA) for 5 min, and the cells were washed with PBS. The above cells were spread on a glass slide, fixed and observed with a Leica TCA sp5 confocal microscope (Germany).
RAW264.7 cells were stained with 10 μg/ml N-terminus FITC-labeled peptides at 37°C in the dark for 24 h. Afterwards, the RAW264.7 cells were harvested and rinsed with PBS five times. The average FITC intensity in the cells was measured via flow cytometry.

TLR4/MD-2 complex [7] = assay: Surface plasmon resonance binding; conditions: SPR, Biacore X100, PBS with 0.05% Tween 20, 30 μl/min, 1:1 model, 0 to 10 μM
Protocol: SPR assays were performed using a Biacore X100 instrument (GE Healthcare, Pittsburgh, PA, USA). PBS containing 0.05% Tween 20 was used as the running buffer. The running buffer was continuously passed into the reaction chamber at 30 μl/min. Immobilization of CTP-NH2 on the chip surface was performed according to an amino coupling protocol. […] Running buffer was injected into the empty channel as a reference. To regenerate the chip surface at the end of each experiment, 10 mM Gly-HCl buffer (pH 2.5) was injected. ProteOn manager software (version 2.0) was used to analyze the experimental data. The binding curves were processed for the start injection alignment and baseline. A reference-subtracted sensorgram was then fitted to the curves describing a homogeneous 1:1 model. Data from the protein surfaces were grouped together to fit the association kinetic rate constant (Ka) and the dissociation rate constant (Kd). The equilibrium dissociation constant (KD) for the peptide-TLR4/MD-2 interaction was calculated as follows: […]

TLR4/MD-2 complex [8] = molecular target: T1, TLR4/MD-2 complex; assay: SPR

Molecule	50% binding rate value (LPS neutralization) ([1]; LPS 1.0 U/ml with 0 to 64 μg/ml peptide, 37°C 15 min, TAL reagent 6 min, absorbance 540 nm)	LPS neutralization activity ([1]; chromogenic TAL assay, LPS 1.0 U/ml, 0 to 64 μg/ml peptide)	TNF-α and IL-6 level, peptide used to pretreat cells or added after LPS induction ([2]; 10 μg/ml peptide 1 h then wash and 100 ng/ml LPS 12 h, or LPS 1 h, wash, then peptide 12 h)	TNF-α and IL-6 release, peptide incubated with LPS ([2]; 10 μg/ml peptide incubated with 100 ng/ml LPS 1 h at 37°C, mixture on cells 12 h)	cytotoxicity (comparison in words) (RAW264.7 cells [3])	TNF-α, IL-6 and IL-1β secretion levels [4]	Retention time [5] [min]	cellular uptake and localization (RAW264.7 cells [6])	Ka (association kinetic rate constant) (TLR4/MD-2 complex [7]) [M⁻¹ s⁻¹]	Kd (TLR4/MD-2 complex [8]) [nM]
RWGRFLRKIRRFRRKDVT [CTP]	approximately 45.32 ± 5.19 μg/ml	inhibited activation of LPS in a dose-dependent manner	scarcely reduced the elevation in the pro-inflammatory cytokines TNF-α; also recorded: barely exerted such effects	potent inhibition of pro-inflammatory cytokine release	lower cytotoxicity than the parental peptide (CATH2) but higher cytotoxicity than TP5	enhanced inhibitory activity against LPS-induced inflammation	10.94	rarely entered RAW264.7 cells	1.34e+07	
RWGRFLRKIRRFRRKDVT [CTP (CATH2(1-13)-TP5 hybrid peptide)]										1400
RWGRFLRKIRRFRRKDVT-NH2 [CTP-NH2 (CATH2(1-13)-TP5 hybrid peptide, C-terminal amide)]										947

— publication PMC7892475, “C-Terminal Amination of a Cationic Anti-Inflammatory Peptide Improves Bioavailability and Inhibitory Activity Against LPS-Induced Inflammation” (Frontiers in Immunology, 2021)
